In the assay the test system is 4T1细胞. Put plainly: In vitro antitumor evaluation: MTT cell viability assay in 4T1 cells. The note with it: 48 h. The class given is cell-based. (Tetrazolium assays rely on reduction of a dye to a coloured formazan, in cell work by metabolically active cells.)

Where no end group is shown, it is not given here.

Turning to LLVVYPWTQR [LLVV-Hemorphin-6肽], where the note is “peptide 10 μM”, the “细胞抑制效果 (cell inhibition effect), peptide alone at high concentration” value is reported as “存在一定的细胞抑制效果”. For the setting “peptide 0.0001-10 μM”, the “细胞抑制率 (cell inhibition rate), peptide alone” value is “较低”.

(Values after CN105367624A, “一种LLVV-Hemorphin-6肽的制备方法和用途” (Individual, priority 2015, dated 2016).)
